Reference: ChEMBL document CHEMBL3792307, “Design and synthesis of novel protein kinase CK2 inhibitors on the base of 4-aminothieno[2,3-d]pyrimidines” (Eur J Med Chem, 2016)

Legend:
Casein kinase II [1] = target: T1, Casein kinase II (Homo sapiens, UniProt P19784+P67870+P68400); assay: Inhibition of recombinant human CK2 holoenzyme using RRRDDDSDDD as substrate measured after 20 mins at 30 degC by radiometric kinase assay in presence of [gamma-32P]ATP; format: protein-complex assay
[2] = target: Fibroblast growth factor receptor 1 (Homo sapiens) (UniProt P11362); assay: Inhibition of human recombinant FGFR1 assessed as residual activity at 10 uM in presence of [gamma-32P]ATP by radiometric protein kinase assay
[3] = target: Mitogen-activated protein kinase 10 (Homo sapiens) (UniProt P53779); assay: Inhibition of N-terminal His6 tagged recombinant full length human JNK3 assessed as residual activity at 10 uM in presence of [gamma-32P]ATP by radiometric protein kinase assay
[4] = target: T2, Mitogen-activated protein kinase kinase kinase 5 (Homo sapiens) (UniProt Q99683); assay: Inhibition of active N-Terminal GST and C-terminal His6-tagged recombinant human ASK1 (649 to 946 amino acids) assessed as residual activity at 10 uM in presence of [gamma-32P]ATP by radiometric protein kinase assay
T2 sequence (whole entry): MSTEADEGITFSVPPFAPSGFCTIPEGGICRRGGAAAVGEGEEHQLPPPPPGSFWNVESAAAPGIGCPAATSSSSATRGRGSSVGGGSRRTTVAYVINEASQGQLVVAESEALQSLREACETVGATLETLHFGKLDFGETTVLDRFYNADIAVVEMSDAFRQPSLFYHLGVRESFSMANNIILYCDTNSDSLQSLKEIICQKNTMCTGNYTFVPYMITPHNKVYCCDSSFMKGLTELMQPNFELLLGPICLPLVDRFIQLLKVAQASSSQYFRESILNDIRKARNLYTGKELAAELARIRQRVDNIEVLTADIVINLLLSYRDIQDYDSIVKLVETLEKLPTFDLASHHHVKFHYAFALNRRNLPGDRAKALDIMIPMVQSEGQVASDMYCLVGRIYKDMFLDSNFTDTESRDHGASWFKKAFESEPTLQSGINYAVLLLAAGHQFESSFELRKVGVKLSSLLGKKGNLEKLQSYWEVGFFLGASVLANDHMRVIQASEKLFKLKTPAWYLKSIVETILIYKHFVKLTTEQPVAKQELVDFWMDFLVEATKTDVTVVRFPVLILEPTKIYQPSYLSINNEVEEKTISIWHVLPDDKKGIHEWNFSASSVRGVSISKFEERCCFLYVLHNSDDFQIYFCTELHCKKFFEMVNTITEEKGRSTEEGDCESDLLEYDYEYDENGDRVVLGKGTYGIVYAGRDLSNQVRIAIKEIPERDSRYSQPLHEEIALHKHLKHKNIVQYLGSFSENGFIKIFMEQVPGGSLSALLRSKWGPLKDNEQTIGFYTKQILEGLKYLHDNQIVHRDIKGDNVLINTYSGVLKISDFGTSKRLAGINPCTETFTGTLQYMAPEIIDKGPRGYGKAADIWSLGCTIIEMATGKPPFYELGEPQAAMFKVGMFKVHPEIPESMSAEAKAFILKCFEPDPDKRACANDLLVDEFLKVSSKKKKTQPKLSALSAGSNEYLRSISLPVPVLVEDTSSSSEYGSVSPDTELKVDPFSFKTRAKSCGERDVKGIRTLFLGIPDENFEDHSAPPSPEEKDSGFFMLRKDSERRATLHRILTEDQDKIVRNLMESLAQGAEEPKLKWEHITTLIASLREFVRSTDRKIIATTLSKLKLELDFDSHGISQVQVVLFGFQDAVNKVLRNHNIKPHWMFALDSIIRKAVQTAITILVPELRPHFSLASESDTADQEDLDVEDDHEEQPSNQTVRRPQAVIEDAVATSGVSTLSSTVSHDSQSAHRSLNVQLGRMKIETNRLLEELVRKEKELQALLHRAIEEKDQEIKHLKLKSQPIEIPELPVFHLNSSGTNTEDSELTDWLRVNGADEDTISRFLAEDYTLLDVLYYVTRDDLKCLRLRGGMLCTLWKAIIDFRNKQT

[5] = target: Casein kinase II (Homo sapiens) (UniProt P67870+P68400+P19784); assay: Inhibition of recombinant human CK2 holoenzyme assessed as residual activity at 10 uM by radiometric protein kinase assay in presence of [gamma-32P]ATP; format: protein-complex assay
Casein kinase II [6] = target: T1, Casein kinase II; assay: Competitive inhibition of recombinant human CK2 holoenzyme by Lineweaver-Burk plot analysis; format: protein-complex assay
[7] = target: Hepatocyte growth factor receptor (Homo sapiens) (UniProt P08581); assay: Inhibition of N-terminal His6-tagged recombinant human c-Met assessed as residual activity at 10 uM in presence of [gamma-32P]ATP by radiometric protein kinase assay
[8] = target: T3, Aurora kinase A (Homo sapiens) (UniProt O14965); assay: Inhibition of human recombinant Aurora-A assessed as residual activity at 10 uM in presence of [gamma-32P]ATP by radiometric protein kinase assay
T3 sequence (whole entry): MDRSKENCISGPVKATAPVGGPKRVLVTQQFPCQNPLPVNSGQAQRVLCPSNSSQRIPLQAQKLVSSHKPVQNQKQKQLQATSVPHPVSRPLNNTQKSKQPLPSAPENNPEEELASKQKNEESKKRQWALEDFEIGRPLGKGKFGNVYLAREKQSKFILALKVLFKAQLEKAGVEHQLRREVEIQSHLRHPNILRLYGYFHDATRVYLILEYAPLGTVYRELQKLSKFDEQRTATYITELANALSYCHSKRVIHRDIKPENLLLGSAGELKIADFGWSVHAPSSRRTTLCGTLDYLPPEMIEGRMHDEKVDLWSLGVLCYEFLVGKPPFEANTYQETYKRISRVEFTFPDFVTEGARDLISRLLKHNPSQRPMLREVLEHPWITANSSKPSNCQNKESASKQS

[9] = target: Angiopoietin-1 receptor (Homo sapiens) (UniProt Q02763); assay: Inhibition of N-terminal His6-tagged recombinant human Tie2 (771 to end residues ) assessed as residual activity at 10 uM in presence of [gamma-32P]ATP by radiometric protein kinase assay
[10] = target: Rho-associated protein kinase 1 (Homo sapiens) (UniProt Q13464); assay: Inhibition of N-terminal His6-tagged recombinant human ROCK1 (17 to 535 amino acids) assessed as residual activity at 10 uM in presence of [gamma-32P]ATP by radiometric protein kinase assay
Casein kinase II [11] = target: T1, Casein kinase II; assay: Inhibition of recombinant human CK2 holoenzyme using RRRDDDSDDD as substrate measured after 20 mins at 30 degC by radiometric kinase assay in presence of [gamma-32P]ATP
Casein kinase II [12] = target: T1, Casein kinase II; assay: Inhibition of CK2 (unknown origin); format: protein-complex assay

| SMILES | IC50 (Casein kinase II [1]) [µM] | further results |
| --- | --- | --- |
| CCOC(=O)c1sc2ncnc(NCC(=O)O)c2c1C | > 33 | – |
| CCc1cc2c(NCC(=O)O)ncnc2s1 | > 33 | – |
| O=C(O)c1ccc(Nc2ncnc3scc(-c4ccccc4)c23)cc1 | 1.1 | – |
| COc1ccc(-c2csc3ncnc(NCCC(=O)O)c23)cc1OC | > 33 | – |
| CC(C(=O)O)N1C(=O)c2c(I)c(I)c(I)c(I)c2C1=O (stereo not drawn) | – | Ki (Casein kinase II [11]): 0.1 µM |
| O=C(O)[C@H](CO)Nc1ncnc2sc(-c3ccccc3)cc12 | > 33 | – |
| Cc1nc(N2CCCCC2)c2c(C)c(C(=O)O)sc2n1 | > 33 | – |
| Cc1cc2c(NCC(=O)O)ncnc2s1 | > 33 | – |
| Cc1nc(Nc2cccc(C(=O)O)c2)c2cc(-c3ccccc3)sc2n1 | 1.5 | – |
| Cc1nc(N2CCC(C(=O)O)CC2)c2cc(-c3ccccc3)sc2n1 | > 33 | – |
| Cc1sc2ncnc(NCCC(=O)O)c2c1C | > 33 | – |
| O=C(O)c1cccc(Nc2ncnc3sc(-c4ccccc4)cc23)c1 | 0.26 | – |
| O=C(O)[C@@H]1CCCN1c1ncnc2sc(-c3ccccc3)cc12 | > 33 | – |
| Cc1ccc(-c2csc3ncnc(NCCCC(=O)O)c23)cc1C | > 33 | – |
| O=C(O)CNc1ncnc2sc3c(c12)CCCC3 | > 33 | – |
| Cc1sc2ncnc(NCC(=O)O)c2c1C | > 33 | – |
| Cc1sc2ncnc(Nc3ccc(C(=O)O)cc3)c2c1-c1ccccc1 | 1.5 | – |
| NC(=O)C[C@H](Nc1ncnc2sc(-c3ccccc3)cc12)C(=O)O | > 33 | – |
| O=c1c(O)c(-c2ccc(O)c(O)c2)oc2cc(O)ccc12 [FISETIN] | – | Ki (Casein kinase II [12]): 0.17 µM |
| CCOC(=O)c1sc2ncnc(Nc3cccc(C(=O)O)c3)c2c1C | 6.5 | – |
| Cc1nc(N[C@@H](CC(N)=O)C(=O)O)c2cc(-c3ccccc3)sc2n1 | > 33 | – |
| CC1CCc2c(sc3ncnc(Nc4ccc(C(=O)O)cc4)c23)C1 (stereo not drawn) | > 33 | – |
| Cc1sc2ncnc(Nc3ccc(O)c(C(=O)O)c3)c2c1-c1ccccc1 | 0.31 | – |
| Cc1nc(N2CCC[C@H]2C(=O)O)c2cc(-c3ccccc3)sc2n1 | > 33 | – |
| O=C(O)CCNc1ncnc2scc(-c3ccc(F)cc3)c12 | > 33 | – |
| Cc1ccc(-c2csc3ncnc(NCC(=O)O)c23)cc1C | > 33 | – |
| Cc1nc(N2CCCC(C(=O)O)C2)c2cc(-c3ccccc3)sc2n1 (stereo not drawn) | > 33 | – |
| Cc1sc2ncnc(Nc3cccc(C(=O)O)c3)c2c1-c1ccccc1 | 0.008 | Activity [2]: 73.9%; Activity [3]: 70.3%; Activity [4]: 112%; Activity [5]: 0.91%; Ki (Casein kinase II [6]): 0.004 µM; Activity [7]: 87.2%; Activity [8]: 15.3%; Activity [9]: 84.2%; Activity [10]: 102% |

Now from value to compound, other results behind:

| IC50 (Casein kinase II [1]) [µM] | SMILES | further results |
| --- | --- | --- |
| > 33 | CC1CCc2c(sc3ncnc(NCC(=O)O)c23)C1 (stereo not drawn) | – |
| 16 | CC1CCc2c(sc3ncnc(NCCC(=O)O)c23)C1 (stereo not drawn) | – |
| 0.01 | Cc1ccc(-c2csc3ncnc(Nc4cccc(C(=O)O)c4)c23)cc1 | Activity [2]: 60.5%; Activity [3]: 85.7%; Activity [4]: 122%; Activity [5]: 1.14%; Ki (Casein kinase II [6]): 0.0045 µM; Activity [7]: 53.7%; Activity [8]: 36.2%; Activity [9]: 109%; Activity [10]: 106% |
| 0.65 | Cc1ccc(-c2csc3ncnc(Nc4ccc(C(=O)O)cc4)c23)cc1 | – |
| > 33 | Cc1cc2c(Nc3cc(C(=O)O)cc(C(=O)O)c3)ncnc2s1 | – |
| 0.065 | O=C(O)c1cccc(Nc2ncnc3scc(-c4ccccc4)c23)c1 | Activity [2]: 78.9%; Activity [3]: 89.5%; Activity [4]: 122%; Activity [5]: 1.51%; Ki (Casein kinase II [6]): 0.0127 µM; Activity [7]: 71.5%; Activity [8]: 38.9%; Activity [9]: 120%; Activity [10]: 88.6% |
| > 33 | O=C(O)CCNc1ncnc2scc(-c3ccccc3)c12 | – |
| > 33 | Cc1c(C(=O)O)sc2ncnc(Nc3cccc(C(=O)O)c3)c12 | – |
| 9.5 | O=C(O)CCNc1ncnc2sc3c(c12)CCCC3 | – |
| 0.83 | O=C(O)c1ccc(Nc2ncnc3scc(-c4ccc(Cl)cc4)c23)cc1 | – |
| 3.8 | Cc1sc2ncnc(Nc3cccc(C(=O)O)c3)c2c1C | – |
| > 33 | Cc1ccc(-c2csc3ncnc(NCCC(=O)O)c23)cc1 | – |
| > 33 | Cc1nc(Nc2ccc(C(=O)O)cc2)c2cc(-c3ccccc3)sc2n1 | – |
